In patent publication US9409908B2 (priority 2012, dated 2016):
Counter-ions that a name gives are not always drawn.

Legend:
[1] = target: purified human plasma kallikrein (Homo sapiens (Human), UniProt P03952); experiment: biochemical; assay type: biochemical; details: read-out: Plasma Kallikrein Ki
[2] = target: purified human Factor XIa (Homo sapiens (Human), UniProt P03951); experiment: biochemical; assay type: biochemical; details: read-out: Factor XIa Ki
Chain of purified human Factor XIa (P03951 whole entry, looked up): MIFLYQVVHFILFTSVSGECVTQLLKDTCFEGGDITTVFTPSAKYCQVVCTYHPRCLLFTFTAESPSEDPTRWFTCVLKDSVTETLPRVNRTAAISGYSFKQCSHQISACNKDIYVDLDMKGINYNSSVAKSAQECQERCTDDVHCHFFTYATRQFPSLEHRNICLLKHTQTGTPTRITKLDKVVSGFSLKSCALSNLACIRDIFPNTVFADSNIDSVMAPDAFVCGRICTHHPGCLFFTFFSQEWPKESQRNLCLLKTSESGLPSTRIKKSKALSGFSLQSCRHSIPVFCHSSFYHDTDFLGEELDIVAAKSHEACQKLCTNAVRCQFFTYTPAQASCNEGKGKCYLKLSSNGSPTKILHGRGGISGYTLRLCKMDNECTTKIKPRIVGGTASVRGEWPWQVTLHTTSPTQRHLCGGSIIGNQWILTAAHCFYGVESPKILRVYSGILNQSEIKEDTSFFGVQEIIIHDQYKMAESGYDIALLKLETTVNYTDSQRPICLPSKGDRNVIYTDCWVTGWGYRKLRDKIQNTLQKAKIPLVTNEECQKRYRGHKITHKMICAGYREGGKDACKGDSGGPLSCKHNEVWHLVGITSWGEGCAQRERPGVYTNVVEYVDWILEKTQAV
Chain of purified human Factor XIa (P03951 whole entry partner, looked up): as the sequence (P03951 whole entry, looked up) above

Chain of purified human plasma kallikrein (P03952 whole entry, looked up): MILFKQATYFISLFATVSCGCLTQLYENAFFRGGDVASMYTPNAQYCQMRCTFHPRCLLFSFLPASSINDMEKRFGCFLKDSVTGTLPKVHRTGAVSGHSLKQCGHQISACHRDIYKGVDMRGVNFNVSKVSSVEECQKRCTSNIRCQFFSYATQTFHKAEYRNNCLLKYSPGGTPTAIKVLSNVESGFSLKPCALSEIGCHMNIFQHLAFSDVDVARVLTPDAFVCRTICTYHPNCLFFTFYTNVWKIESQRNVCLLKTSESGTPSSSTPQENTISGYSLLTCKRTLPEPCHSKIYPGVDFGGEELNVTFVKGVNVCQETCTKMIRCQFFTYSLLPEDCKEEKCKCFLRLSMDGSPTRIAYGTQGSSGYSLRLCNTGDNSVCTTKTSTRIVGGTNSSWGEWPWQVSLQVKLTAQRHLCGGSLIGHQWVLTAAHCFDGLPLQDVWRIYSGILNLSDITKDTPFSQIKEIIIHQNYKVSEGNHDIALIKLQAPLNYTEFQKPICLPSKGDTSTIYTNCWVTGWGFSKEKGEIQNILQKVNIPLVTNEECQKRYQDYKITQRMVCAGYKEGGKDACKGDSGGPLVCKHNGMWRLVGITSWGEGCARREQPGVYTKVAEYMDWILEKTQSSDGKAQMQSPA
Chain of purified human plasma kallikrein (P03952 whole entry partner, looked up): as the sequence (P03952 whole entry, looked up) above

| SMILES | Ki [1] | Ki [2] |
| --- | --- | --- |
| COC(=O)c1ccc2c(c1)-c1ccnc(c1)[C@@H](N1CCC(c3c(F)ccc(Cl)c3F)=CC1=O)CCC[C@@H](C)C(=O)N2 [Example 144, Methyl (10R,14S)-14-[4-(3-chloro-2,6-difluorophenyl)-6-oxo-1,2,3,6-tetrahydropyridin-1-yl]-10-methyl-9-oxo-8,16-diazatricyclo[13.3.1.0^2,7]nonadeca-1(19),2(7),3,5,15,17-hexaene-4-carboxylate] | 108 nM | 186 nM |
| C[C@@H]1CCC[C@H](N2CCC(c3c(Br)ccc(Cl)c3F)=CC2=O)c2cc(ccn2)-c2cc(F)ccc2NC1=O [Example 147, (10R,14S)-14-[4-(6-bromo-3-chloro-2-fluorophenyl)-6-oxo-1,2,3,6-tetrahydropyridin-1-yl]-4-fluoro-10-methyl-8,16-diazatricyclo[13.3.1.0^2,7]nonadeca-1(19),2(7),3,5,15,17-hexaen-9-one] | 7.51 nM | 3.59 nM |
| C[C@@H]1CCC[C@H](N2CCC(c3c(F)ccc(Cl)c3F)=CC2=O)c2cc(ccn2)-c2cc(CO)ccc2NC1=O [Example 148, (10R,14S)-14-[4-(3-chloro-2,6-difluorophenyl)-6-oxo-1,2,3,6-tetrahydropyridin-1-yl]-4-(hydroxymethyl)-10-methyl-8,16-diazatricyclo[13.3.1.0^2,7]nonadeca-1(19),2(7),3,5,15,17-hexaen-9-one] | 118 nM | 90.1 nM |
| C[C@@H]1CCC[C@H](N2CCC(c3c(F)ccc(Cl)c3F)=CC2=O)c2cc(ccn2)-c2ccc(CO)cc2NC1=O [Example 149, (10R,14S)-14-[4-(3-chloro-2,6-difluorophenyl)-6-oxo-1,2,3,6-tetrahydropyridin-1-yl]-5-(hydroxymethyl)-10-methyl-8,16-diazatricyclo[13.3.1.0^2,7]nonadeca-1(19),2(7),3,5,15,17-hexaen-9-one] | 22.6 nM | 17.5 nM |
| C[C@@H]1CCC[C@H](N2CCC(c3c(C#N)ccc(Cl)c3F)=CC2=O)c2cc(ccn2)-c2cc(F)ccc2NC1=O [Example 150, 4-chloro-3-fluoro-2-{1-[(10R,14S)-4-fluoro-10-methyl-9-oxo-8,16-diazatricyclo[13.3.1.0^2,7]nonadeca-1(19),2(7),3,5,15,17-hexaen-14-yl]-6-oxo-1,2,3,6-tetrahydropyridin-4-yl}benzonitrile] | 2.27 nM | 0.99 nM |
| COC(=O)Nc1ccc2c(c1)C(=O)NCCCCC[C@H](N1CCC(c3c(F)ccc(Cl)c3F)=CC1=O)c1cc-2ccn1 [Example 152, Methyl N-[(15S)-15-[4-(3-chloro-2,6-difluorophenyl)-6-oxo-1,2,3,6-tetrahydropyridin-1-yl]-8-oxo-9,17-diazatricyclo[14.3.1.0^2,7]icosa-1(20),2(7),3,5,16,18-hexaen-5-yl]carbamate, TFA salt] | 24.3 nM | 25.6 nM |
| COC(=O)Nc1ccc2c(c1)NC(=O)[C@H](C)CCC[C@H](N1CCC(c3ccnc(N)c3)=CC1=O)c1cc-2ccn1 [Example 154, Methyl N-[(10R,14S)-14-[4-(2-aminopyridin-4-yl)-6-oxo-1,2,3,6-tetrahydropyridin-1-yl]-10-methyl-9-oxo-8,16-diazatricyclo[13.3.1.0^2,7]nonadeca-1(19),2,4,6,15,17-hexaen-5-yl]carbamate, 2 TFA salt] | 118 nM | 23.6 nM |
| COC(=O)Nc1ccc2c(c1)NC(=O)[C@H](C)CCC[C@H](N1CCC(C3CCNCC3)=CC1=O)c1cc-2ccn1 [Example 155, Methyl N-[(10R,14S)-10-methyl-9-oxo-14-[6-oxo-4-(piperidin-4-yl)-1,2,3,6-tetrahydropyridin-1-yl]-8,16-diazatricyclo[13.3.1.0^2,7]nonadeca-1(19),2,4,6,15,17-hexaen-5-yl]carbamate, 2 TFA salt] | 199 nM | 4.88 nM |
| COC(=O)Nc1ccc2c(c1)NC(=O)[C@H](C)CCC[C@H](N1CCC(c3cccc(Cl)n3)=CC1=O)c1cc-2ccn1 [Example 157, Methyl N-[(10R,14S)-14-[4-(6-chloropyridin-2-yl)-6-oxo-1,2,3,6-tetrahydropyridin-1-yl]-10-methyl-9-oxo-8,16-diazatricyclo[13.3.1.0^2,7]nonadeca-1(19),2,4,6,15,17-hexaen-5-yl]carbamate, 2 TFA salt] | 108 nM | 74.9 nM |
| COC(=O)Nc1ccc2c(c1)NC(=O)[C@H](C)CCC[C@H](N1CCC(C3CCCCN3C)=CC1=O)c1cc-2ccn1 (stereo partly drawn) [Example 158, Methyl N-[(10R,14S)-10-methyl-14-[4-(1-methylpiperidin-2-yl)-6-oxo-1,2,3,6-tetrahydropyridin-1-yl]-9-oxo-8,16-diazatricyclo[13.3.1.0^2,7]nonadeca-1(19),2,4,6,15,17-hexaen-5-yl]carbamate, 2 TFA salt] | 10900 nM | > 404 nM |
| COC(=O)Nc1ccc2c(c1)NC(=O)[C@H](C)CCC[C@H](N1CCC(C3CCCC(C)C3)=CC1=O)c1cc-2ccn1 (stereo partly drawn) [Example 159, Methyl N-[(10R,14S)-10-methyl-14-[4-(3-methylcyclohexyl)-6-oxo-1,2,3,6-tetrahydropyridin-1-yl]-9-oxo-8,16-diazatricyclo[13.3.1.0^2,7]nonadeca-1(19),2,4,6,15,17-hexaen-5-yl]carbamate, TFA salt (diastereomeric isomers)] | 58.9 nM | 63.2 nM |
| COC(=O)Nc1ccc2c(c1)NC(=O)[C@H](C)CCC[C@H](N1CCC(c3c(Br)ccc(Cl)c3F)=CC1=O)c1cccc-2c1 [Example 161, Methyl N-[(10R,14S)-14-[4-(6-bromo-3-chloro-2-fluorophenyl)-6-oxo-1,2,3,6-tetrahydropyridin-1-yl]-10-methyl-9-oxo-8-azatricyclo[13.3.1.0^2,7]nonadeca-1(19),2,4,6,15,17-hexaen-5-yl]carbamate] | 21.6 nM | 0.59 nM |
| C[C@@H]1CCC[C@H](N2CCC(c3c(F)ccc(Cl)c3F)=CC2=O)c2cccc(c2)-c2ccccc2NC1=O [Example 162, (10R,14S)-14-[4-(3-chloro-2,6-difluorophenyl)-6-oxo-1,2,3,6-tetrahydropyridin-1-yl]-10-methyl-8-azatricyclo[13.3.1.0^2,7]nonadeca-1(19),2,4,6,15,17-hexaen-9-one] | 125 nM | 76.5 nM |
| COC(=O)c1ccc2c(c1)-c1cccc(c1)[C@@H](N1CCC(c3c(Br)ccc(Cl)c3F)=CC1=O)CCC[C@@H](C)C(=O)N2 [Example 163, Methyl (10R,14S)-14-[4-(6-bromo-3-chloro-2-fluorophenyl)-6-oxo-1,2,3,6-tetrahydropyridin-1-yl]-10-methyl-9-oxo-8-azatricyclo[13.3.1.0^2,7]nonadeca-1(19),2,4,6,15,17-hexaene-4-carboxylate] | 224 nM | > 398 nM |
| COC(=O)c1ccc2c(c1)-c1cccc(c1)[C@@H](N1CCC(c3c(F)ccc(Cl)c3F)=CC1=O)CCC[C@@H](C)C(=O)N2 [Example 164, Methyl (10R,14S)-14-[4-(3-chloro-2,6-difluorophenyl)-6-oxo-1,2,3,6-tetrahydropyridin-1-yl]-10-methyl-9-oxo-8-azatricyclo[13.3.1.0^2,7]nonadeca-1(19),2,4,6,15,17-hexaene-4-carboxylate] | 442 nM | > 398 nM |
